Results: paper PMC5971061, “Differential Effects of Linkers on the Activity of Amphiphilic Tobramycin Antifungals” (Molecules : A Journal of Synthetic Chemistry and Natural …, 2018)
Converted amounts (≈) assume the structure as drawn. Like-named read-outs stand apart in the source and are kept apart here.

What was measured:
[1] = system: C. albicans ATCC 10231 (strain A); assay: MIC, broth microdilution (CLSI M27-A3), yeast strain A; type: cell-based, Candida albicans; conditions: Candida albicans, ATCC10231; MIC-0, strain A, 35 °C 48 h
Experimental: (§1) The final concentrations of compounds 3, 4, 7a, 7b, 9, and 16, as well as that of TOB tested in this study ranged from 0.24–62.5 μg/mL. CAS was used as a positive control and the final concentrations tested for CAS ranged from 0.03–31.3 μg/mL. Briefly, overnight yeast cultures were grown in yeast peptone dextrose (YPD) broth and the cell density was adjusted to an OD600 of 0.12 (~1 × 10^6 CFU/mL) by using a spectrophotometer. Yeast cell suspensions were further diluted to achieve 1–5 × 10^3 CFU/mL in RPMI 1640 medium, and 100 μL of these yeast cells was added to 96-well microtiter plates containing RPMI 1640 medium and titrated compounds. Each test was performed in triplicate. The plates were incubated at 35 °C for 48 h.

[2] = system: C. albicans ATCC 90819(R) (strain D); assay: MIC, broth microdilution (CLSI M27-A3), yeast strain D; type: cell-based; conditions: Candida albicans, ATCC90819; MIC-0, strain D, 35 °C 48 h
Experimental: as §1

[3] = system: C. albicans ATCC MYA-2310(S) (strain E); assay: MIC, broth microdilution (CLSI M27-A3), yeast strain E; type: cell-based; conditions: Candida albicans; MIC-0, strain E, 35 °C 48 h
Experimental: as §1

[4] = system: C. albicans ATCC MYA-1237(R) (strain F); assay: MIC, broth microdilution (CLSI M27-A3), yeast strain F; type: cell-based; conditions: Candida albicans; MIC-0, strain F, 35 °C 48 h
Experimental: as §1

[5] = system: C. albicans ATCC MYA-1003(R) (strain G); assay: MIC, broth microdilution (CLSI M27-A3), yeast strain G; type: cell-based; conditions: Candida albicans; MIC-0, strain G, 35 °C 48 h
Experimental: as §1

[6] = system: Candida glabrata clinical isolate CG1; assay: MIC, broth microdilution (CLSI M27-A3), CG1; type: cell-based; conditions: Nakaseomyces glabratus; MIC-0, CG1, 35 °C 48 h
Experimental: as §1

[7] = system: Candida glabrata clinical isolate CG2; assay: MIC, broth microdilution (CLSI M27-A3), CG2; type: cell-based; conditions: Nakaseomyces glabratus; MIC-0, CG2, 35 °C 48 h
Experimental: as §1

[8] = system: Candida glabrata clinical isolate CG3; assay: MIC, broth microdilution (CLSI M27-A3), CG3; type: cell-based; conditions: Nakaseomyces glabratus; MIC-0, CG3, 35 °C 48 h
Experimental: as §1

[9] = system: Candida glabrata ATCC 2001 (strain H); assay: MIC, broth microdilution (CLSI M27-A3), yeast strain H; type: cell-based; conditions: Nakaseomyces glabratus, ATCC2001; MIC-0, strain H, 35 °C 48 h
Experimental: as §1

[10] = system: Candida krusei ATCC 6258 (strain I); assay: MIC, broth microdilution (CLSI M27-A3), yeast strain I; type: cell-based; conditions: Pichia kudriavzevii, ATCC6258; MIC-0, strain I, 35 °C 48 h
Experimental: as §1

[11] = system: Candida parapsilosis ATCC 22019 (strain J); assay: MIC, broth microdilution (CLSI M27-A3), yeast strain J; type: cell-based; conditions: Lodderomyces parapsilosis, ATCC22019; MIC-0, strain J, 35 °C 48 h
Experimental: as §1

[12] = system: Candida parapsilosis clinical isolate CP1; assay: MIC, broth microdilution (CLSI M27-A3), CP1; type: cell-based; conditions: Lodderomyces parapsilosis; MIC-0, CP1, 35 °C 48 h
Experimental: as §1

[13] = system: Candida parapsilosis clinical isolate CP2; assay: MIC, broth microdilution (CLSI M27-A3), CP2; type: cell-based; conditions: Lodderomyces parapsilosis; MIC-0, CP2, 35 °C 48 h
Experimental: as §1

[14] = system: Candida parapsilosis clinical isolate CP3; assay: MIC, broth microdilution (CLSI M27-A3), CP3; type: cell-based; conditions: MIC-0, CP3, 35 °C 48 h
Experimental: as §1

[15] = system: Cryptococcus neoformans clinical isolate CN3; assay: MIC, broth microdilution (CLSI M27-A3), CN3; type: cell-based; conditions: MIC-0, CN3, 35 °C 48 h
Experimental: as §1

[16] = system: Aspergillus nidulans ATCC 38163 (strain L); assay: MIC, filamentous fungi (CLSI M38-A2), strain L; type: cell-based; conditions: MIC-0, strain L, 35 °C 72 h
Experimental: (§2) The spores were harvested from sporulating cultures growing on potato dextrose agar (PDA) by filtration through sterile glass wool and enumerated by using a hemocytometer (Hausser Scientific, Horsham, PA, USA) to obtain the desired inoculum size. Two-fold serial dilutions of compounds 3, 4, 7a, 7b, 9, and 16, as well as CAS and TOB were made in sterile 96-well microtiter plates to obtain the final concentration range of 0.24–62.5 μg/mL for TOB and TOB derivatives as well as 0.03–31.3 μg/mL for CAS in the RPMI 1640 medium. The spore suspensions were added to the wells to afford a final concentration of 5 × 10^5 spores/mL. The plates were incubated at 35 °C for 72 h. […] Each test was performed in triplicate.

[17] = system: Aspergillus terreus ATCC MYA-3633 (strain M); assay: MIC, filamentous fungi (CLSI M38-A2), strain M; type: cell-based; conditions: MIC-0, strain M, 35 °C 72 h
Experimental: as §2

[18] = system: seven C. albicans strains (A-G); assay: MIC across the panel of seven C. albicans strains; type: cell-based; conditions: Candida albicans; across all seven C. albicans strains tested
Experimental: as §1

[19] = system: nine non-albicans Candida strains (H-J, CG1-3, CP1-3); assay: MIC across the panel of nine non-albicans Candida strains; type: cell-based, Candida glabrata, Candida krusei, Candida parapsilosis
Experimental: as §1

Hemolytic activity assay = type: cell-based, murine; conditions: mouse, murine red blood cells (mRBCs); for hemolysis at 1 h, 0.48 μg/mL / hemolysis at 1 h, 0.975 μg/mL / hemolysis at 1 h, 1.95 μg/mL / hemolysis at 1 h, 3.9 μg/mL / hemolysis at 1 h, 7.8 μg/mL / hemolysis at 1 h, 15.6 μg/mL / hemolysis at 1 h, 31.3 μg/mL / hemolysis at 1 h, 62.5 μg/mL: mRBCs, 37 °C 1 h, ± SDEV
Experimental: The hemolytic activity of compounds 3, 4, 7a, 7b, and 9 as well as the parent compound TOB was determined by using previously described methods with minor modifications. Murine whole blood (1 mL) was suspended in 4 mL of PBS and centrifuged at 1000 rpm for 10 min at room temperature to obtain murine red blood cells (mRBCs). The mRBCs were washed four times in PBS and resuspended in the same buffer to a final concentration of 10^7 erythrocytes/mL. Two-fold serial dilutions of compounds 3, 4, 7a, 7b, and 9 were prepared using 100 μL of PBS buffer in Eppendorf tubes followed by the addition of 100 μL of mRBC suspension that made the final concentration of compounds and mRBCs to be 0.48–62.5 μg/mL and 5 × 10^6 erythrocytes/mL, respectively. The tubes were incubated at 37 °C for 1 h. The tubes with PBS buffer (200 μL) and Triton X-100® (1% v/v, 2 μL) served as the negative (blank) and positive controls, respectively. The percentage of hemolysis was calculated using the following equation: % hemolysis = [(absorbance of sample) − (absorbance of blank)] × 100/(absorbance of positive control).

[20] = Aspergillus nidulans, ATCC38163, 72 h, read-out: MIC

Question: Which MIC [1] does the source give for CCCCCCCCCCc1cn(C[C@H]2O[C@H](O[C@@H]3[C@@H](O)[C@H](O[C@H]4O[C@H](CN)[C@@H](O)C[C@H]4N)[C@@H](N)C[C@H]3N)[C@H](O)[C@@H](N)[C@@H]2O)nn1 [Compound 7a, O-3-Amino-3,6-dideoxy-6-(4-decyl-1H-1,2,3-triazol-1-yl)-α-D-glucopyranosyl-(1→6)-O-[2,6-diamino-2,3,6-trideoxy-α-D-ribo-hexopyranosyl-(1→4)]-2-deoxy-D-streptamine] here?
Answer: 31.3 µg/mL (≈ 47.5 µM)

Question: What about the MIC [2] of the same compound?
Answer: 62.6 µg/mL (≈ 95 µM)

Question: And the MIC [3]?
Answer: 31.3 µg/mL (≈ 47.5 µM)

Question: And the MIC [4]?
Answer: 62.5 µg/mL (≈ 94.9 µM)

Question: What about the MIC [5] of the same compound?
Answer: 62.5 µg/mL (≈ 94.9 µM)

Question: What about the MIC [6] of the same compound?
Answer: 31.3 µg/mL (≈ 47.5 µM)

Question: And the MIC [7]?
Answer: 15.6 µg/mL (≈ 23.7 µM)

Question: And the MIC [8]?
Answer: 15.6 µg/mL (≈ 23.7 µM)

Question: And the MIC [9]?
Answer: 62.5 µg/mL (≈ 94.9 µM)

Question: And the MIC [10]?
Answer: 15.6 µg/mL (≈ 23.7 µM)

Question: What about the MIC [11] of the same compound?
Answer: 15.6 µg/mL (≈ 23.7 µM)

Question: What about the MIC [12] of the same compound?
Answer: 15.6 µg/mL (≈ 23.7 µM)

Question: What about the MIC [13] of the same compound?
Answer: 15.6 µg/mL (≈ 23.7 µM)

Question: And the MIC [14]?
Answer: 31.3 µg/mL (≈ 47.5 µM)

Question: What about the MIC [15] of the same compound?
Answer: 0.48 µg/mL (≈ 0.729 µM)

Question: What about the MIC [16, 20] of the same compound?
Answer: 1.95 to 3.9 µg/mL (≈ 2.96 to 5.92 µM)

Question: What about the MIC [16] of the same compound?
Answer: 3.9 µg/mL (≈ 5.92 µM)

Question: And the MIC [17]?
Answer: > 62.5 µg/mL

Question: What about the MIC [18] of the same compound?
Answer: 31.3 to 62.5 µg/mL (≈ 47.5 to 94.9 µM)

Question: What about the MIC [19] of the same compound?
Answer: 15.6 to 62.5 µg/mL (≈ 23.7 to 94.9 µM)

Question: What about the hemolysis at 1 h, 0.48 μg/mL (Hemolytic activity assay) of the same compound?
Answer: 0%

Question: What about the hemolysis at 1 h, 0.975 μg/mL (Hemolytic activity assay) of the same compound?
Answer: 0%

Question: What about the hemolysis at 1 h, 1.95 μg/mL (Hemolytic activity assay) of the same compound?
Answer: 15.6 ± 9.3%

Question: And the hemolysis at 1 h, 3.9 μg/mL (Hemolytic activity assay)?
Answer: 0%

Question: What about the hemolysis at 1 h, 7.8 μg/mL (Hemolytic activity assay) of the same compound?
Answer: 7.4 ± 3.1%

Question: What about the hemolysis at 1 h, 15.6 μg/mL (Hemolytic activity assay) of the same compound?
Answer: 14 ± 5.4%

Question: And the hemolysis at 1 h, 31.3 μg/mL (Hemolytic activity assay)?
Answer: 14.8 ± 1.9%

Question: And the hemolysis at 1 h, 62.5 μg/mL (Hemolytic activity assay)?
Answer: 14.8 ± 0.4%

Question: For CCCCCCCCCCCCS(=O)(=O)C[C@H]1O[C@H](O[C@@H]2[C@@H](O)[C@H](O[C@H]3O[C@H](CN)[C@@H](O)C[C@H]3N)[C@@H](N)C[C@H]2N)[C@H](O)[C@@H](N)[C@@H]1O [Compound 4, O-3-Amino-3,6-dideoxy-6-(dodecylsulfonyl)-α-D-glucopyranosyl-(1→6)-O-[2,6-diamino-2,3,6-trideoxy-α-D-ribo-hexopyranosyl-(1→4)]-2-deoxy-D-streptamine], which MIC [1] is on record?
Answer: 15.6 µg/mL (≈ 22.8 µM)

Question: And the MIC [2]?
Answer: 15.6 µg/mL (≈ 22.8 µM)

Question: What about the MIC [3] of the same compound?
Answer: 15.6 µg/mL (≈ 22.8 µM)

Question: What about the MIC [4] of the same compound?
Answer: 15.6 µg/mL (≈ 22.8 µM)

Question: And the MIC [5]?
Answer: 15.6 µg/mL (≈ 22.8 µM)

Question: And the MIC [6]?
Answer: 7.8 µg/mL (≈ 11.4 µM)

Question: And the MIC [7]?
Answer: 3.9 µg/mL (≈ 5.7 µM)

Question: What about the MIC [8] of the same compound?
Answer: 3.9 µg/mL (≈ 5.7 µM)

Question: And the MIC [9]?
Answer: 15.6 µg/mL (≈ 22.8 µM)

Question: And the MIC [10]?
Answer: 7.8 µg/mL (≈ 11.4 µM)

Question: What about the MIC [11] of the same compound?
Answer: 7.8 µg/mL (≈ 11.4 µM)

Question: What about the MIC [12] of the same compound?
Answer: 3.9 µg/mL (≈ 5.7 µM)

Question: And the MIC [13]?
Answer: 3.9 µg/mL (≈ 5.7 µM)

Question: What about the MIC [14] of the same compound?
Answer: 7.8 µg/mL (≈ 11.4 µM)

Question: And the MIC [15]?
Answer: 0.975 µg/mL (≈ 1.43 µM)

Question: What about the MIC [16, 20] of the same compound?
Answer: 1.95 to 3.9 µg/mL (≈ 2.85 to 5.7 µM)

Question: And the MIC [16]?
Answer: 3.9 µg/mL (≈ 5.7 µM)

Question: What about the MIC [17] of the same compound?
Answer: 62.5 µg/mL (≈ 91.4 µM)

Question: And the MIC [18]?
Answer: 7.8 to 31.3 µg/mL (≈ 11.4 to 45.8 µM)

Question: What about the MIC [19] of the same compound?
Answer: 3.9 to 15.6 µg/mL (≈ 5.7 to 22.8 µM)

Question: And the hemolysis at 1 h, 0.48 μg/mL (Hemolytic activity assay)?
Answer: 0%

Question: And the hemolysis at 1 h, 0.975 μg/mL (Hemolytic activity assay)?
Answer: 0%

Question: And the hemolysis at 1 h, 1.95 μg/mL (Hemolytic activity assay)?
Answer: 6.6 ± 3.5%

Question: And the hemolysis at 1 h, 3.9 μg/mL (Hemolytic activity assay)?
Answer: 6 ± 1.9%

Question: What about the hemolysis at 1 h, 7.8 μg/mL (Hemolytic activity assay) of the same compound?
Answer: 10.7 ± 3.1%

Question: What about the hemolysis at 1 h, 15.6 μg/mL (Hemolytic activity assay) of the same compound?
Answer: 15.3 ± 5%

Question: What about the hemolysis at 1 h, 31.3 μg/mL (Hemolytic activity assay) of the same compound?
Answer: 24.9 ± 2.3%

Question: What about the hemolysis at 1 h, 62.5 μg/mL (Hemolytic activity assay) of the same compound?
Answer: 31.2 ± 6.6%

Question: And the hemolysis at 1 h (Hemolytic activity assay; at their MIC values against the Aspergillus strains)?
Answer: 4 to 32%
